Assay results reported in patent US11046729B2, “Dipeptide analogs as TGF-beta inhibitors” (SOUTHERN RESEARCH INSTITUTE, priority 2017, dated 2021).
In brackets after ≈: the same amount, converted by molar mass. Several values for one entry are separate records, joined by “and”; a condition that tells them apart may be missing. Identical values can stand only once. Like-named read-outs stand apart in the source and are kept apart here. Non-standard residues stand in square brackets, D forms with d. Residues, ends and D or L forms follow the SMILES beside them. *: point of attachment. Orn = NCCC[C@H](N)C(=O)O; Ac5c = NC1(C(=O)O)CCCC1; Aib = CC(C)(N)C(=O)O; Butyryl = CCCC(=O)*

Legend:
[1] = target: T1, purified human platelet TSP-1 (activation of recombinant latent TGF-β1) (Homo sapiens, UniProt P07996); test: ELISA-based screening assay: TSP-1 activation of recombinant latent TGF-β1; assay type: biochemical; details: for % Inhibition at 50 pM: Table 2, 5e-05 µM
T1 construct: purified human platelet TSP-1 was incubated with compounds; from tissue; host or cells: human platelets
Procedure: For initial screening, an ELISA-based screening assay was used in which purified human platelet TSP-1 was incubated with compounds and then incubated with recombinant latent TGF-β1 (purchased from R&D Systems). Activity is measured in a commercially available ELISA which detects only active TGF-β (R &D Systems). Activity in the presence of compounds is compared to activity in TSP-1+latent TGF-β samples without inhibitory compounds (Lu et al. (2016) Am J Pathol 186:678-690).

Solubility = assay type: physicochemical
[2] = Pharmacokinetics (% F, T1/2, Tmax); details: in vivo
[3] = Rat liver microsomal stability; assay type: in vitro ADME; details: rat liver microsomes; read-out: Rat Liver Microsomal Stability t1/2
[4] = Human liver microsomal stability; assay type: in vitro ADME; details: human liver microsomes; read-out: Human Liver Microsomal Stability t1/2
[5] = tested on: TSP-1 activation of latent TGF-β; test: cell-based assay of TSP1 activation of latent TGF-β (Table 3; Secondary Assay of Table 1); set-up: species or system human
Procedure: To specifically assess activity of compounds in liver cell specific assays, two different assays were used. In the first, human hepatic stellate cells were incubated overnight in low serum media to condition the media with secreted latent TGF-β. Purified TSP1 either preincubated with compounds or not will be added to cultures and then conditioned media harvested to assess TGF-β biological activity using the R&D Systems ELISA as above. Hepatic stellate cells will be purchased from commercial sources. Although hepatic stellate cells are the primary drivers of liver fibrosis, conditions which drive liver fibrosis can induce hepatocyte TSP-1 expression which can then have paracrine effects on controlling TGF-β activation in hepatic stellate cells. Furthermore, TGF-β can negatively impact hepatocyte regeneration following injury. Therefore, the ability of compounds to blockTSP-1 activation of latent TGF-β will also be assessed in cultured primary human hepatocytes following the protocol described for the hepatic stellate cells. Similar approaches have successfully been used to screen compounds which inhibit human myeloma cell derived latent TGF-β activation by TSP-1 (Lu et al. (2016) Am J Pathol 186:678-690).

Log D = assay type: physicochemical
[6] = target: recombinant latent TGF-β1 (purchased from R&D Systems) (UniProt P01137); test: cell-based or functional assay
MSCs = test: Osteoblast differentiation by MSCs under osteogenic conditions; assay type: cell-based; details: osteogenic media, 20 days; TGF-β 5 ng/mL, TSP1 10 nM, LSKL 25 μM
Procedure: Referring to FIG. 1A, MSCs were grown to confluence in basal (control) media. Cells were treated with control growth media, osteogenic media, or osteogenic media with TGF-β (5 ng/mL) or stripped TSP1 (10 nM), TSP1+LSKL (SEQ ID NO:1) (25 μM), TSP1+SLLK (SEQ ID NO:2) (25 μM control peptide), or TSP1+anti-TGF-β (5 μg/mL). Cultures were fed daily for 20 days. Alkaline phosphatase staining is representative of triplicate wells.
Referring to FIG. 1B, cells were treated every 2 days for 20 days with MSC growth media (control) or osteogenic media with TGF-β (5 ng/mL) or TSP1 (10 nM) daily treatment with 25 μM LSKL (SEQ ID NO:1) or SLLK (SEQ ID NO:2) peptides. RNA isolated from cells was used for RT-PCR analysis of Runx2 expression. Samples were run in duplicate and each experimental treatment in triplicate.

CAG MM cells = test: TGF-β activity in CAG MM cells (phospho-Smad 2 immunoblot); assay type: cell-based, human; details: 30 nM TSP1, 6 hrs
Procedure: Referring to FIG. 4A, CAG MM cells were incubated with 30 nM TSP1 for 6 hrs LSKL (SEQ ID NO:1) or SLLK (SEQ ID NO:2). Cell lysates were immunoblotted for phosphor-Smad 2. Blots were stripped and reprobed for total Smad 2/3 and GAPDH. Results are normalized to GAPDH (untreated controls=1). LSKL (SEQ ID NO:1) reduces TSP1 induced treatment or luciferase activity in cells treated with active TGF-β (not shown).

[7] = target: TSP1 (activation of recombinant latent TGF-β1) (Homo sapiens, UniProt P07996); test: Latent TGF-β activation by TSP1 in vitro (Quantikine ELISA for TGF-β1); assay type: biochemical; details: TSP1 155 nM
Procedure: Previous studies have illustrated the ability of tripeptide analogs such as compound no. 93 to block latent TGF-β activation by TSP1 in vitro (see FIG. 5 and FIG. 6). Briefly, TSP1 (155 nM, 20 μg/ml) was incubated for 10 min at 37° C. with 93, LSKL (SEQ ID NO:1), or control SLLK (SEQ ID NO:2) peptide. The mixture was then incubated with […] recombinant latent TGF-β1 for 20 min at 37° C. TGF-β1 activity was measured using an R&D systems Quantikine ELISA for TGF-β1.

[8] = cited from earlier work
[9] = 30 mg/kg i.p., 3 times weekly, 15 weeks; cited from earlier work
CAG human myeloma cells = test: SCID-tibia MM model; assay type: in vivo, SCID mice
Procedure: Referring to FIG. 2A and FIG. 2B, CAG human myeloma cells were injected into the intratibial marrow space of SCID mice. After 2 weeks, tumors were imaged by bioluminescence and serum 1 g kappa levels measured. Mice were randomized to equalize 1 g kappa levels. Osmotic pumps were implanted subcutaneously to deliver saline or LSKL peptide (SEQ ID NO:1) (30 mg/kg/day) (n=10/group). Tumors were imaged and serum 1 g kappa levels measured at 2 and 4 weeks of treatment. Data are means SEM. Bioluminescence; *p=0.019 ANOVA, serum kappa; p=0.037, t-test.
Referring to FIG. 3A-C, at 4 weeks of treatment, tibiae from mice injected with CAG MM cells were fixed and stained with antibody to phosphor-Smad 2. Left panels are from 2 different saline treated mice and the right panels are from LSKL (SEQ ID NO:1)-treated mice. Pixels of brown staining were quantified in 4 fields per animal. 5-6 animals per group were analyzed. Data are the percent area exceeding the threshold for positive staining (FIG. 3A). […] P=0.004.

CAG-heparanase MM cells = test: PAI-1 promoter luciferase reporter assay of conditioned media of CAG-heparanase MM cells treated with TSP1; assay type: cell-based, human; details: 67 nM TSP1, conditioned media
Procedure: Referring to FIG. 4B, CAG-heparanase MM cells were treated with 67 nM TSP1 and conditioned media were assessed for TGF-β activity using PAI-1 promoter luciferase reporter assay. There is ˜[…] TGF-β in the added TSP1 and LSKL (SEQ ID NO:1) blocks 80% of the CAG-heparanase MM cell generated TGF-β activity.

[10] = ELISA-based assay, Table 2, read-out: % Inhibition at 50 pM
[11] = Conc. of compound 1 pM (last column: 30 nM)
[12] = Conc. of compound 50 pM (last column: 300 nM)
[13] = Conc. of compound 100 pM (last column: 3 μM)

T1 sequence (P07996 19-1170): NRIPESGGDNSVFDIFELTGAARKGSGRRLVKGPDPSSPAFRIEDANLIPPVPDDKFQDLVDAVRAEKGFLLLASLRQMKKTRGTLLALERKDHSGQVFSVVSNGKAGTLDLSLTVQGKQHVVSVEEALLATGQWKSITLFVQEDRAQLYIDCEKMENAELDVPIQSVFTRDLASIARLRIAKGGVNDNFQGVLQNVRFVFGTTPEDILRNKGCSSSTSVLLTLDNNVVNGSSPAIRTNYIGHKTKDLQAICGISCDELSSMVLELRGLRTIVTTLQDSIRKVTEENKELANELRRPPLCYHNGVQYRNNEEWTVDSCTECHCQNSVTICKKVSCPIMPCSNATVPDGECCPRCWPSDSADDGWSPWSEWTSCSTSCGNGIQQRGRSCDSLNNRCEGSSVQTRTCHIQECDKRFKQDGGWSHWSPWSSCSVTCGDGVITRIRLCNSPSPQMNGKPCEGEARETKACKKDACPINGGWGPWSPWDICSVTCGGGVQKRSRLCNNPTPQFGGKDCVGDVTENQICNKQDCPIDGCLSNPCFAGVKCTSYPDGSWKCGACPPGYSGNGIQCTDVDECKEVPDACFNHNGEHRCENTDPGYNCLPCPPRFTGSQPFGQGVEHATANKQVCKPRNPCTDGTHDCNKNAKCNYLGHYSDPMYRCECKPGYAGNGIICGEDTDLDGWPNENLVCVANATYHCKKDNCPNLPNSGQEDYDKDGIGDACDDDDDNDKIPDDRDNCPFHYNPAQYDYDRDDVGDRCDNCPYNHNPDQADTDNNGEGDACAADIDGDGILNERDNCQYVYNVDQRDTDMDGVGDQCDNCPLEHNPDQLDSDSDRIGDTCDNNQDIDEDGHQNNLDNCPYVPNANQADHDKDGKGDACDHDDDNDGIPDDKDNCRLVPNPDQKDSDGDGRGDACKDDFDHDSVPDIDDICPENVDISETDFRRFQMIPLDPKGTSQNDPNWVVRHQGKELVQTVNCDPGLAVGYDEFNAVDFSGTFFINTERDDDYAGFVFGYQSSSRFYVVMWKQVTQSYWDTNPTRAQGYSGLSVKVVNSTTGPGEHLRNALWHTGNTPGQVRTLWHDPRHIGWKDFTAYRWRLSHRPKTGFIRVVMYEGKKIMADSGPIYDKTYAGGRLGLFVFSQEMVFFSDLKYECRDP
Chain of TSP1 (activation of recombinant latent TGF-β1) (P07996 19-1170): as above
Chain of recombinant latent TGF-β1 (purchased from R&D Systems) (P01137 30-390 limits assumed): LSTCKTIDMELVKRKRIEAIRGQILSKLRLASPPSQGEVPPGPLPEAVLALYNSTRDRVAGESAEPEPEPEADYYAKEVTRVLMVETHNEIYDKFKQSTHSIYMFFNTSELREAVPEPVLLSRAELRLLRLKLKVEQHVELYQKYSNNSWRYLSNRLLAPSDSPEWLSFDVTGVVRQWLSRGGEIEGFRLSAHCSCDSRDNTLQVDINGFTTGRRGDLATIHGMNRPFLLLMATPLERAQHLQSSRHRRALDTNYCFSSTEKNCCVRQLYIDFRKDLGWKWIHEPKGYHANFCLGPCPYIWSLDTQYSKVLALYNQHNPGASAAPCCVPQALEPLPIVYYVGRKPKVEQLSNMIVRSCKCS

CC(=O)N[C@@H](CC(C)C)C(=O)N[C@@H](CCCN)C(N)=O [Compound 61, (S)-2-acetamido-N—((S)-1,5-diamino-1-oxopentan-2-yl)-4-methylpentanamide] (Ac-Leu-[Orn]-NH2)
% Inhibition at 50 pM ([1]; ELISA-based assay): 63% and 99%

CC(=O)N[C@@H](CCCN)C(=O)NC(C)(C)C(N)=O [Compound 8, (S)-2-acetamido-5-amino-N-(1-amino-2-methyl-1-oxopropan-2-yl)pentanamide] (Ac-[Orn]-[Aib]-NH2)
Solubility (Solubility): 4.5 µM (≈ 1.16 µg/mL) | inhibition at 50 pM [1, 10]: 100% | inhibition at 50 pM ([1]; read-out: Primary Assay (% Inhibition at 50 pM)): 79% | Tmax [2]: 0.5 h | bioavailability [2]: 5% | half-life ([2]; iv): 1.9 h | half-life [3]: 2.84 h | half-life [4]: 5 h | % Inhibition [5, 11]: 65% | Conc. of Active TGF-β (pM) [5, 11]: 2.3 pM | % Inhibition [5, 12]: 79% | Conc. of Active TGF-β (pM) [5, 12]: 0.81 pM | % Inhibition [5, 13]: 80% | Conc. of Active TGF-β (pM) [5, 13]: 0.78 pM | inhibition at 0.3 µM ([5]; Homo sapiens, read-out: Secondary Assay: % Inhibition at 300 nM): 92% | logD (Log D): 1

Thrombospondin 1 (TSP1), purified human platelet TSP-1 (from UniProt P07996 19-1170)
Conc. of Active TGF-β (pM), ELISA which detects only active TGF-β [6]: 4.9 pM

CC(=O)N[C@@H](CCCN)C(=O)Nc1cc(C)c[nH]c1=O [Compound 30, (S)-2-acetamido-5-amino-N-(5-methyl-2-oxo-1,2-dihydropyridin-3-yl)pentanamide]
inhibition at 50 pM [1, 10]: 50%

CC(=O)N[C@@H](CCCN)C(=O)NCC(N)=O [Compound 82, (S)-2-acetamido-5-amino-N-(2-amino-2-oxoethyl)pentanamide] (Ac-[Orn]-Gly-NH2)
inhibition at 50 pM [1, 10]: 100% | % Inhibition [5, 11]: 17% | Conc. of Active TGF-β (pM) [5, 11]: 4.2 pM | % Inhibition [5, 12]: 80% | Conc. of Active TGF-β (pM) [5, 12]: 0.79 pM | % Inhibition [5, 13]: 100% | Conc. of Active TGF-β (pM) [5, 13]: 0 pM

Thrombospondin 1 [TSP1]
osteoblast differentiation by MSCs (alkaline phosphatase staining, Runx2 expression) (MSCs): Decrease Osteoblast Differentiation | TGF-β activity in CAG MM cells (phospho-Smad 2) (CAG MM cells): Induces TGF-B Activity

CCCC(=O)N[C@@H](CCCN)C(=O)N[C@@H](CC(C)C)C(N)=O [Compound 63, (S)-5-amino-N—((S)-1-amino-4-methyl-1-oxopentan-2-yl)-2-butyramidopentanamide] (Butyryl-[Orn]-Leu-NH2)
% Inhibition at 50 pM ([1]; ELISA-based assay): 59% and 85% | % Inhibition [5, 11]: 67% | Conc. of Active TGF-β (pM) [5, 11]: 2.2 pM | % Inhibition [5, 12]: 82% | Conc. of Active TGF-β (pM) [5, 12]: 0.7 pM | % Inhibition [5, 13]: 100% | Conc. of Active TGF-β (pM) [5, 13]: 0 pM

TGF-β
osteoblast differentiation by MSCs (alkaline phosphatase staining, Runx2 expression) (MSCs): Decrease Osteoblast Differentiation

SLLK
latent TGF-β activation by TSP1 in vitro (TGF-β1 activity vs TSP1+latent TGF-β) [7]: not significant

LSKL
osteoblast differentiation by MSCs (alkaline phosphatase staining, Runx2 expression) (MSCs): Increases Osteoblast Differentiation | plasma stability half-life [8]: 2.1 min | necropsy findings after treatment [9]: no inflammation, no tumors in all major organs, and no impairment of wound healing | MM tumor burden (bioluminescence, serum Ig kappa) (CAG human myeloma cells; 30 mg/kg/day by subcutaneous osmotic pump, 2 and 4 weeks of treatment): Reduces Mm Tumor Burden | phospho-Smad 2 staining in the bone marrow (CAG human myeloma cells; 4 weeks of treatment, tibiae): Reduces Phospho-Smad 2 | block of CAG-heparanase MM cell generated TGF-β activity (CAG-heparanase MM cells): 80% | TGF-β activity in CAG MM cells (phospho-Smad 2) (CAG MM cells): Reduces TGF-B Activity

CC(C)C[C@H](NC(=O)[C@H](CCCN)NC(=O)C1CCCC1)C(N)=O [Compound 37, N—((S)-5-amino-1-(((S)-1-amino-4-methyl-1-oxopentan-2-yl)amino)-1-oxopentan-2-yl)cyclopentanecarboxamide]
inhibition at 50 pM [1, 10]: 30%

CC(=O)N[C@@H](CCCN)C(=O)NC1(C(N)=O)CCCC1 [Compound 13, (S)-1-(2-Acetamido-5-aminopentanamido)cyclopentanecarboxamide] (Ac-[Orn]-[Ac5c]-NH2)
inhibition at 50 pM [1, 10]: 35%
